From US20170088520A1, “DEUBIQUITINASE INHIBITORS” (PharmAkea, Inc., priority 2014, published 2017)

Tests used:
Format in all cases: cell-based
[1] = tested on: Mcl-1 expression in cells (NCI-H929, Z138, MM.1S, A-375); assay: Analysis of Mcl-1 expression by Western blotting; settings: compound tested at 5 μM; Western blot
Description: (§1) Example B-2: Analysis of Md-1 Expression and PARP Cleavage
(§2) The ability of test compounds to decrease expression of the tumor promoting protein, Mcl-1, and to induce the inactivation/cleavage of the PARP protein is evaluated in cells (NCI-H929, Z138, MM.1S, A-375) by Western blotting. Cells are plated and treated as described in the HA-Ub-VS cell labeling assay (see above). A portion of the cleared lysate (15-50 μl) is run on an SDS-polyacrylamide gel to separate proteins and then transferred to nitrocellulose. After transfer to nitrocellulose, the proteins are detected by probing the blot with anti-Mcl-1 and anti-PARP antibodies followed by secondary antibodies coupled to IRdye 800 and IRdye 680 and visualization and quantitation using a LiCor Odyssey machine. Activity of the test compound is identified as a significant decrease in Mcl-1 expression relative to the vehicle treated cells and to the appearance of a cleaved fragment of PARP relative to the vehicle-treated cells.
(§3) The following compounds were tested in the above assays at 5 μM: […]

[2] = tested on: PARP cleavage in cells (NCI-H929, Z138, MM.1S, A-375); assay: Analysis of PARP cleavage by Western blotting; settings: compound tested at 5 μM; Western blot
Description: as §1, §2, §3

[3] = molecular target: T1, DUB activity in cells (NCI-H929, Z138, MM.1S, A375) (Homo sapiens, UniProt Q93008); assay: HA-Ubiquitin-Vinylsulfone (HA-Ub-VS) cell labeling assay; settings: compound tested at 5 μM; HA-Ub-VS labeling of USP9x in cells
T1 construct: endogenous in cells; host or cells: NCI-H929, Z138, MM.1S, A375
T1 sequence (Q93008 whole entry): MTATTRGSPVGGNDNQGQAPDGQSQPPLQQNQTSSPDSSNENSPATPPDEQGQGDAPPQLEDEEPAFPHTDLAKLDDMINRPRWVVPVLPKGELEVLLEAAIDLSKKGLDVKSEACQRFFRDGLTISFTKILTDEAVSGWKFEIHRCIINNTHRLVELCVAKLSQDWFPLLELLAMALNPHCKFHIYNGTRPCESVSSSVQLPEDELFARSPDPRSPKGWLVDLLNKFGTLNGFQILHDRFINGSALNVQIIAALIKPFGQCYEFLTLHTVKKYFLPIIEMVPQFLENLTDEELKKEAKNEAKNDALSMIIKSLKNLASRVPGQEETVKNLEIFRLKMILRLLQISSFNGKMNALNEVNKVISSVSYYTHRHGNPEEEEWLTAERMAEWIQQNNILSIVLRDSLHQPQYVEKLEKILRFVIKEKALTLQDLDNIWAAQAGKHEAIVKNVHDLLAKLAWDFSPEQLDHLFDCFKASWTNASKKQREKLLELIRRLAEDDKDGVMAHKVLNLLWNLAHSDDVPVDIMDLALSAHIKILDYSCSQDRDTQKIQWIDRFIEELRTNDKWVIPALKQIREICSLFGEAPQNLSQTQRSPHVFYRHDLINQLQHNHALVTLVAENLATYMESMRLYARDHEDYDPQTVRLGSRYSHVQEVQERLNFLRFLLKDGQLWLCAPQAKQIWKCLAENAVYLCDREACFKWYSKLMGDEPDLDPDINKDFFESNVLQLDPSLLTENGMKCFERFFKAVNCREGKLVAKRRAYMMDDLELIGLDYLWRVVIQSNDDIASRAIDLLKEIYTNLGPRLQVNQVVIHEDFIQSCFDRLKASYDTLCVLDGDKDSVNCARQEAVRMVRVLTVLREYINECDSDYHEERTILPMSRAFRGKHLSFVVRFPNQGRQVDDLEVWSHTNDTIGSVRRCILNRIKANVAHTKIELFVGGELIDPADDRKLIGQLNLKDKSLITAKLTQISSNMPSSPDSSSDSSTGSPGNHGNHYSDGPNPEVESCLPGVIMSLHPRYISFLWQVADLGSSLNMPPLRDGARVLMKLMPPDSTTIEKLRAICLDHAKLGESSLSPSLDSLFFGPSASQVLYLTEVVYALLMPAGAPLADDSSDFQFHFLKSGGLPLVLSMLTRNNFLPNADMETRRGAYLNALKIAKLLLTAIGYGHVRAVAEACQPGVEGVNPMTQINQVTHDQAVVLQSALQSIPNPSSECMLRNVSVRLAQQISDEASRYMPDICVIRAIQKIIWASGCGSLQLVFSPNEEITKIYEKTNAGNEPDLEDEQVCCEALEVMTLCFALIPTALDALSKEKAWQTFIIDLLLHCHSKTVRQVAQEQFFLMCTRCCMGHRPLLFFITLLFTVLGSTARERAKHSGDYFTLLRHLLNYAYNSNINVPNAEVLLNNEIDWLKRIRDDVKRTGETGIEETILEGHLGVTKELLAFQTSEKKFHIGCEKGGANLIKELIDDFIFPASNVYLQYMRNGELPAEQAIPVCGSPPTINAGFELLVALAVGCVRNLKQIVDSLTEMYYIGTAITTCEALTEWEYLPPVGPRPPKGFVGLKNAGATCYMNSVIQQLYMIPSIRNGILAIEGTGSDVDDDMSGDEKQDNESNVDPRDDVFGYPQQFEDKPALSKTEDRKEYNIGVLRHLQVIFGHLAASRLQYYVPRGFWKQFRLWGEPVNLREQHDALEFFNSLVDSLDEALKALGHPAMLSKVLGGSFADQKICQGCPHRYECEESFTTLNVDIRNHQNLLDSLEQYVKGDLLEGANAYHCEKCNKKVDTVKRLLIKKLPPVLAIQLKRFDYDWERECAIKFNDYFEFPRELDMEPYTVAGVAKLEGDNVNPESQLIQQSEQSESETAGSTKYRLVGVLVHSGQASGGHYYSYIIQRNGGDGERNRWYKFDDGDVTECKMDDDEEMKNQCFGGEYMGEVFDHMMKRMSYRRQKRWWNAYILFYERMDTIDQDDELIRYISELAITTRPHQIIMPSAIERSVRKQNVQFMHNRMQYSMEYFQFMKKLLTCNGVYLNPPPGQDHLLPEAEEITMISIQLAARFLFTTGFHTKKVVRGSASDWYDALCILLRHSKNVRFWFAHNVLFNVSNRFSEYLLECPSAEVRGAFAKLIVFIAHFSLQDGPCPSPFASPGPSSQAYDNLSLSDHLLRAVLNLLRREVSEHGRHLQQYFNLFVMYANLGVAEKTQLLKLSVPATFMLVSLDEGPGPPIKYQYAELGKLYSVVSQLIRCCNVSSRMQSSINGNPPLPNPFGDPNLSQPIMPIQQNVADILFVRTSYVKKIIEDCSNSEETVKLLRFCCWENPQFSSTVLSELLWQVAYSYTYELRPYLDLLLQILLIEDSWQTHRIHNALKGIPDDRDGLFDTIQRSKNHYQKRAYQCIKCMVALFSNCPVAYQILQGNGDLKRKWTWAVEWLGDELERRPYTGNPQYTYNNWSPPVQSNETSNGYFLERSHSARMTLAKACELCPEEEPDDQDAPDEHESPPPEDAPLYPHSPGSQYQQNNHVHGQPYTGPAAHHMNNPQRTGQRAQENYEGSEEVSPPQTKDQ
Description: Example B-1: HA-Ubiqutin-Vinylsulfone (HA-Ub-VS) Cell Labeling
Inhibitition of DUB activity is measured in cells (NCI-H929, Z138, MM.1S, A375) using a hemaglutinin-ubiquitin-vinylsulfone (HA-Ub-VS) labeling assay. Briefly, 1-2×10^6 cells are plated in 12-well plates in 1 ml complete growth media and 250 μl of test compound in 0.5% dimethylsulfoxide (or DMSO control) is added to each well. Plates are incubated at 37° C., 5% CO2 for 2-6 hours before cells are harvested into eppendorf tubes, washed once in PBS and resuspended in 100 μl cold lysis buffer (50 mM Tris pH 8, 150 mM NaCl, 0.5% NP-40, 2 mM phenylmethylsulfonyl fluoride and complete protease inhibitor tablet). Resupended cells are frozen on dry ice, then thawed and incubated on ice for 15 minutes. Tubes are centrifuged for 10 minutes at 14,000 rpm at 4° C. and the cleared supernatants transferred to clean tubes. […] The samples are incubated 15-60 min at 37° C. before the addition of SDS gel loading buffer. Proteins are separated by SDS-PAGE, transferred to nitrocellulose and the blot probed with anti-HA antibody and anti-β-actin antibodies. The HA and β-actin antibodies are detected using secondary antibodies coupled to IRdye 800 or IRdye 680 and visualized and quantitated using the LiCor Odyssey machine.
as §3

Structure (SMILES) | inhibition at 5 µM [1] [%] | PARP cleavage % Inhibition [2] | inhibition at 5 µM [3] [%]
COC(=O)/C=C/c1cccc(/C=C(\C#N)C(=O)NC2(c3ccccc3)CCCC2)n1 [Compound 42, (E)-methyl 3-(6-((E)-2-cyano-3-oxo-3-((1-phenylcyclopentyl)amino)prop-1-en-1-yl)pyridin-2-yl)acrylate] | ≥ 75 | A (A is ≧75% inhibition) | 50 to 75
N#C/C(=C\c1cccc(C#CCn2cccn2)n1)C(=O)NC1(c2ccccc2)CCCC1 [Compound 43, (E)-3-(6-(3-(1H-pyrazol-1-yl)prop-1-yn-1-yl)pyridin-2-yl)-2-cyano-N-(1-phenylcyclopentyl)acrylamide] | ≥ 75 | A (A is ≧75% inhibition) | ≥ 75
N#C/C(=C\c1cccc(C#CC2(O)CCCC2)n1)C(=O)NC1(c2ccccc2)CCCC1 [Compound 45] | ≥ 75 | A (A is ≧75% inhibition) | 50 to 75
N#C/C(=C\c1ncccc1Br)C(=O)NC1(c2ccccc2)CCCC1 [Compound 46, (E)-3-(3-bromopyridin-2-yl)-2-cyano-N-(1-phenylcyclopentyl)acrylamide] | 50 to 75 | A (A is ≧75% inhibition) | 50 to 75
CCOc1ncc(C(F)(F)F)cc1-c1cccc(/C=C(\C#N)C(=O)NC2(c3ccccc3)CCCC2)n1 [Compound 47, (E)-2-cyano-3-(2′-ethoxy-5′-(trifluoromethyl)-[2,3′-bipyridin]-6-yl)-N-(1-phenylcyclopentyl)acrylamide] | 50 to 75 | A (A is ≧75% inhibition) | 25 to 50
COC(=O)c1cccc(C2(NC(=O)/C(C#N)=C/c3cccc(Br)n3)CCCC2)c1 [Compound 48, (E)-methyl 3-(1-(3-(6-bromopyridin-2-yl)-2-cyanoacrylamido)cyclopentyl)benzoate] | < 25 | A (A is ≧75% inhibition) | 50 to 75
CC(C)(C)OC(=O)c1cc(-c2cccc(/C=C(\C#N)C(=O)NC3(c4ccccc4)CCCC3)n2)cnc1Cl [Compound 49] | ≥ 75 | A (A is ≧75% inhibition) | ≥ 75
N#C/C(=C\c1ncc(Br)cc1Br)C(=O)NC1(c2ccc(C#CCN3CCOCC3)cc2)CCCC1 [Compound 50, (E)-2-cyano-3-(3,5-dibromopyridin-2-yl)-N-(1-(4-(3-morpholinoprop-1-yn-1-yl)phenyl)cyclopentyl)acrylamide] | ≥ 75 | A (A is ≧75% inhibition) | ≥ 75
N#C/C(=C\c1ncc(Br)cc1Br)C(=O)NC1(c2ccc(-c3ccc(N4CCOCC4)nc3)cc2)CCCC1 [Compound 51, (E)-2-cyano-3-(3,5-dibromopyridin-2-yl)-N-(1-(4-(6-morpholinopyridin-3-yl)phenyl)cyclopentyl)acrylamide] | 25 to 50 | A (A is ≧75% inhibition) | 25 to 50
CC(C)(C)OC(=O)c1cccc(C2(NC(=O)/C(C#N)=C/c3ncc(Br)cc3Br)CCCC2)c1 [Compound 52, (E)-tert-butyl 3-(1-(2-cyano-3-(3,5-dibromopyridin-2-yl)acrylamido)cyclopentyl)benzoate] | < 25 | D (D is <25% inhibition) | < 25
COc1ncccc1-c1ccc(C2(NC(=O)/C(C#N)=C/c3ncc(Br)cc3Br)CCCC2)cc1 [Compound 53, (E)-2-cyano-3-(3,5-dibromopyridin-2-yl)-N-(1-(4-(2-methoxypyridin-3-yl)phenyl)cyclopentyl)acrylamide] | 50 to 75 | A (A is ≧75% inhibition) | < 25
CCOc1ncc(C(F)(F)F)cc1-c1ccc(C2(NC(=O)/C(C#N)=C/c3ncc(Br)cc3Br)CCCC2)cc1 [Compound 54, (E)-2-cyano-3-(3,5-dibromopyridin-2-yl)-N-(1-(4-(2-ethoxy-5-(trifluoromethyl)pyridin-3-yl)phenyl)cyclopentyl)acrylamide] | < 25 | C (C is 25% to 50% inhibition) | < 25
N#C/C(=C\c1cccc(C#CCN2CCOCC2)n1)C(=O)NC1(c2ccccc2)CCCC1 [Compound 55, (E)-2-cyano-3-(6-(3-morpholinoprop-1-yn-1-yl)pyridin-2-yl)-N-(1-phenylcyclopentyl)acrylamide] | < 25 | A (A is ≧75% inhibition) | 25 to 50
CC(C)(C)OC(=O)c1cccc(-c2cccc(/C=C(\C#N)C(=O)NC3(c4ccccc4)CCCC3)n2)c1 [Compound 56, (E)-tert-butyl 3-(6-(2-cyano-3-oxo-3-((1-phenylcyclopentyl)amino)prop-1-en-1-yl)pyridin-2-yl)benzoate] | ≥ 75 | A (A is ≧75% inhibition) | 50 to 75
N#C/C(=C\c1cccc(-c2ccc(N3CCOCC3)nc2)n1)C(=O)NC1(c2ccccc2)CCCC1 [Compound 57, (E)-2-cyano-3-(6′-morpholino-[2,3′-bipyridin]-6-yl)-N-(1-phenylcyclopentyl)acrylamide] | ≥ 75 | A (A is ≧75% inhibition) | ≥ 75
N#C/C(=C\c1cccc(Br)n1)C(=O)NC1(c2cccc(Br)c2)CCCC1 [Compound 58, (E)-N-(1-(3-bromophenyl)cyclopentyl)-3-(6-bromopyridin-2-yl)-2-cyanoacrylamide] | ≥ 75 | A (A is ≧75% inhibition) | ≥ 75
N#C/C(=C\c1ncc(Br)cc1Br)C(=O)NC1(c2ccc(-c3cnc4[nH]ccc4c3)cc2)CCCC1 [Compound 59, (E)-N-(1-(4-(1H-pyrrolo[2,3-b]pyridin-5-yl)phenyl)cyclopentyl)-2-cyano-3-(3,5-dibromopyridin-2-yl)acrylamide] | ≥ 75 | A (A is ≧75% inhibition) | ≥ 75
CCOC(=O)c1cccc(-c2cccc(/C=C(\C#N)C(=O)NC3(c4ccccc4)CCCC3)n2)c1F [Compound 60] | ≥ 75 | A (A is ≧75% inhibition) | 50 to 75
N#C/C(=C\c1cccc(-c2cnc3[nH]ccc3c2)n1)C(=O)NC1(c2ccccc2)CCCC1 [Compound 61, (E)-3-(6-(1H-pyrrolo[2,3-b]pyridin-5-yl)pyridin-2-yl)-2-cyano-N-(1-phenylcyclopentyl)acrylamide] | < 25 | B (B is 50% to 75% inhibition) | < 25
Cn1cc(-c2cccc(/C=C(\C#N)C(=O)NC3(c4ccccc4)CCCC3)n2)cn1 [Compound 62, (E)-2-cyano-3-(6-(1-methyl-1H-pyrazol-4-yl)pyridin-2-yl)-N-(1-phenylcyclopentyl)acrylamide] | ≥ 75 | A (A is ≧75% inhibition) | 50 to 75
C=C(C)c1ccc(C2(NC(=O)/C(C#N)=C/c3ncc(Br)cc3Br)CCCC2)cc1 [Compound 63, (E)-2-cyano-3-(3,5-dibromopyridin-2-yl)-N-(1-(4-(prop-1-en-2-yl)phenyl)cyclopentyl)acrylamide] | ≥ 75 | A (A is ≧75% inhibition) | ≥ 75
N#C/C(=C\c1cccc(-c2ccc(C(F)(F)F)nc2)n1)C(=O)NC1(c2ccccc2)CCCC1 [Compound 64, (E)-2-cyano-N-(1-phenylcyclopentyl)-3-(6′-(trifluoromethyl)-[2,3′-bipyridin]-6-yl)acrylamide] | ≥ 75 | A (A is ≧75% inhibition) | 50 to 75
N#C/C(=C\c1cccc(-c2ccc(N3CCCCC3)nc2)n1)C(=O)NC1(c2ccccc2)CCCC1 [Compound 65, (E)-2-cyano-N-(1-phenylcyclopentyl)-3-(6′-(piperidin-1-yl)-[2,3′-bipyridin]-6-yl)acrylamide] | < 25 | B (B is 50% to 75% inhibition) | 25 to 50
